Measured values taken from US20260174739A1 (priority 2022, published 2026).

Legend:
human DAT = human DAT (Homo sapiens, UniProt Q01959); assay: DAT transporter inhibitory activity test (neurotransmitter transporter uptake assay kit); format: cell-based
[1] = In vivo metabolism (pharmacokinetic) experiment in mice; parameters: species or system male ICR mice; conditions: male, ICR, mouse, po, 10 mg/kg, male ICR mice
How it was run: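 Fasted (12 h) male ICR mice received compound in 5% DMSO/5% Solutol HS15/90% saline at 2.5 mg/kg iv or 10 mg/kg po. Plasma and brain sampled 0.083–8 h (n=3 per time point) and analysed by LC-MS/MS. Parameters derived by non-compartmental analysis.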

[2] = Human liver microsome assay (metabolic stability); format: in vitro ADME; conditions: pH 7.4; human liver microsomes 0.2 mg/mL, 1 μM test drug, NADPH, 37° C.; read-out: Half-life (t1/2, min)
How it was run: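 Human liver microsomes 0.2 mg/mL with 1 μM compound, 3.0 mM MgCl2 and 2.0 mM NADPH in 0.1 M phosphate pH 7.4, 37 °C; sampled at 0–60 min. LC-MS/MS peak-area ratio to internal standard; T1/2 and CLint from slope of ln residual versus time.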

human DAT, sequence (Q01959 whole entry): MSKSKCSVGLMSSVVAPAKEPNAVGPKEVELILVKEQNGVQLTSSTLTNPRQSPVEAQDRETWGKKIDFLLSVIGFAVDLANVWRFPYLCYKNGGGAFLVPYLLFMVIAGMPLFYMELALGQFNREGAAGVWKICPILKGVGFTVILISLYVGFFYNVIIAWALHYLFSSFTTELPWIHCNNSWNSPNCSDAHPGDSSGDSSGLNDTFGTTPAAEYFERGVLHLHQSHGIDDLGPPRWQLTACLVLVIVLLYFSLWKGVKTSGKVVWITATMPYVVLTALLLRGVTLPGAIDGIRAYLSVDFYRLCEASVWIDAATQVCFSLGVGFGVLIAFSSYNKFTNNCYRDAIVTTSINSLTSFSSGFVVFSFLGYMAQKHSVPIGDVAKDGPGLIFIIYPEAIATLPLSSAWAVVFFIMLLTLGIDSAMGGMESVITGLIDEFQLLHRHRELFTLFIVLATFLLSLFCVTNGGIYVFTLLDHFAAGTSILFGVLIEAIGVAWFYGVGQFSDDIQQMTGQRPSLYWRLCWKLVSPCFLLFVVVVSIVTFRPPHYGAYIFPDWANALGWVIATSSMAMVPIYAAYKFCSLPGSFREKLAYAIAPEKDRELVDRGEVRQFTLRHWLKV

CCNC1(c2ccccc2)CCc2nc(N)sc2C1 (racemic) [rac-A5, N^6-ethyl-6-phenyl-4,5,6,7-tetrahydrobenzothiazole-2,6-diamine]
IC50 (human DAT): 2000 nM
bioavailability ([1]; oral 10 mg/kg vs iv 2.5 mg/kg, read-out: F (%)): 63%
AUC(0-inf) ([1]; oral 10 mg/kg, plasma, read-out: AUC0-inf(po)): 1010 ng·h/mL
Cmax ([1]; oral 10 mg/kg, plasma, read-out: Cmax (po)): 250 ng/mL
half-life ([1]; oral 10 mg/kg, plasma, read-out: T1/2 (po) (converted)): 2.43 h
half-life at 1 μM [2]: > 120 min
